Reference: patent US9827177B2, “Antiperspirant products with protein and antiperspirant salts” (Colgate-Palmolive Company, priority 2012, dated 2017)

What was measured:
[1] = Hydrolysis reaction: turbidity and pH of diluted ZLC solutions before and after aging; format: physicochemical; details: for pH after aging / turbidity after aging (NTU): aged 37° C. over 5 hours; for initial turbidity (NTU): before aging
Method: Hydrolysis reaction: A 185 mg/ml ZLC solution is prepared and diluted several-fold and aged in a 37° C. oven over 5 hours for turbidity studies. […] Turbidity of the solutions is measured using a nephelometer, results being given in nephelometric turbidity units (NTU).
The precipitates formed in the 8×, 16× and 32× diluted solutions are collected by centrifugation and identified as crystalline ZnO by PXRD. From the supernatant, a single crystal is grown and shown by X-ray diffraction to be Lysine Monohydrochloride Dihydrate (Lysine.HCl.2H2O).

[2] = biological target: T1, Bovine Serum Albumin (BSA) (Bos taurus, UniProt P02769); experiment: Flocculation of ZLC in the presence of protein (turbidity, pH); format: physicochemical; details: 5 hours at 37° C.
T1 construct: is a serum albumin protein derived from the blood of cattle; from tissue; host or cells: blood of cattle
Method: Turbidity and pH of solutions are measured 5 hours after the mixtures were placed in a 37° C. oven, and the results are shown in Table 3.

[3] = system: bacterial lawn on TSA plates; experiment: Zone of inhibition test; format: cell-based; details: 20 μl on filter paper discs, 20 hours at 37° C.; compared with zinc oxide and lysine hydrochloride
Method: A zone of inhibition test is conducted on several materials: zinc oxide, lysine hydrochloride, and ZLC. The method involves making a lawn of freshly prepared bacterial culture on TSA (trypticase soy agar) plates. Sterile filter paper discs are seeded with 20 μl of test sample (supernatant or mixture). Sample-coated filter paper discs are air dried and applied onto the bacterial lawn on TSA plates. Plates are incubated for 20 hours at 37° C.

[4] = Precipitation of ZLC-BSA mixture solutions at adjusted pH; format: physicochemical; details: pure solution, pH 3-11
Description: The pH of the solutions is adjusted to 3, 4, 5, 6, 7, 8, 9, 10 and 11 to observe the formation of precipitation. Precipitate is formed in all solutions at pH ranging from 3 to 5. […] All solutions appear clear at pH 8. A small amount of precipitation is also found at pH 9 and 10. At pH 11, precipitate is formed in all solutions. […] The formation of precipitation in acid pH requires both ZLC and BSA to be present in solution.

[5] = sample 1: DI water, 0% BSA, ZLC about 0.98% w/w or 15 mg/ml
[6] = sample 2: 1% BSA, pH 7.2, ZLC about 0.96% w/w or 15 mg/ml
[7] = sample 3: 1% BSA, pH adjusted to 5.1, ZLC about 0.96% w/w or 15 mg/ml

T1 sequence (P02769 25-607): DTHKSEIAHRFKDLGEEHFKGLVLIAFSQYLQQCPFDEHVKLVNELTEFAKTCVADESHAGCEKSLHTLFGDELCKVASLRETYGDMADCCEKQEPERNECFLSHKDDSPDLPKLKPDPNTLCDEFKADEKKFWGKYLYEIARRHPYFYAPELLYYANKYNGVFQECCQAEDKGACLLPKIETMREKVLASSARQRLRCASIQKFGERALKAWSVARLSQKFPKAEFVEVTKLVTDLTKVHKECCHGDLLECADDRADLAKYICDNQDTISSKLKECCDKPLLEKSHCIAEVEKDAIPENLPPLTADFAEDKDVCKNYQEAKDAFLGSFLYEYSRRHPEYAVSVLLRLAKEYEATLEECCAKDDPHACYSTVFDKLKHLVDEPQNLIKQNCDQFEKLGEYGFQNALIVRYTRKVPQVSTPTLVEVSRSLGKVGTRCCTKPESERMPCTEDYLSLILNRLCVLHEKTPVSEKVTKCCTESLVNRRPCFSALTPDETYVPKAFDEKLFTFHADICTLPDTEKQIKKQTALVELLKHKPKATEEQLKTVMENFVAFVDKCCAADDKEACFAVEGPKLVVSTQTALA

What does the source list for `NCCCCC(N)C(=O)O.NCCCCC(N)C(=O)O.O.O.[Cl-].[Cl-].[Zn+2]` (stereo not drawn) [ZLC, zinc-lysine-HCl complex]?
pH after aging ([1]; 5.78 mg/ml ZLC solution): 8; turbidity after aging (NTU) ([1]; 5.78 mg/ml ZLC solution): >1000 NTU; pH after aging ([1]; 11.56 mg/ml ZLC solution): 7.8; turbidity after aging (NTU) ([1]; 11.56 mg/ml ZLC solution): >1000 NTU; pH after aging ([1]; 23.125 mg/ml ZLC solution): 7.7; initial turbidity (NTU) ([1]; 23.125 mg/ml ZLC solution): 0.7 NTU; pH after aging ([1]; 46.25 mg/ml ZLC solution): 7.4; turbidity after aging (NTU) ([1]; 46.25 mg/ml ZLC solution): 2.8 NTU; initial turbidity (NTU) ([1]; 46.25 mg/ml ZLC solution): 1.5 NTU; pH after aging ([1]; 92.5 mg/ml ZLC solution): 7; turbidity after aging (NTU) ([1]; 92.5 mg/ml ZLC solution): 2.6 NTU; initial turbidity (NTU) ([1]; 92.5 mg/ml ZLC solution): 2.8 NTU; observation on dilution of the solution ([1]; 185 mg/ml ZLC solution diluted several-fold): A white precipitate forms as the solution is diluted; pH after aging ([1]; 185 mg/ml ZLC solution): 6.8; turbidity after aging (NTU) ([1]; 185 mg/ml ZLC solution): 4.1 NTU; initial turbidity (NTU) ([1]; 185 mg/ml ZLC solution): 4.7 NTU; stability of the complex upon dilution ([1]; 8×, 16× and 32× diluted solutions, precipitate identified as ZnO by PXRD): disassociates upon dilution, with consequent precipitation of zinc oxide; observation [2, 5]: becomes slightly cloudy; pH [2, 5]: 8; Turbidity (NTU) [2, 6]: >1000 NTU; observation [2, 6]: a lot white precipitate; pH [2, 6]: 8.2; Turbidity (NTU) [2, 7]: >1000 NTU; observation [2, 7]: a lot white precipitate; pH [2, 7]: 8; antibacterial activity (zone of inhibition) [3]: better antibacterial activity than zinc oxide alone or lysine hydrochloride alone; formation of precipitation [4]: No precipitation
